Source: ChEMBL document CHEMBL1201862, “PubChem BioAssay data set” (2004)
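Dose response: 5 concentrations. Exposure: 48 h. Format: 96-well plates. Endpoint: linear interpolation; highest concentration if not reached. At the GI50, growth is halved.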 Activity calls are given as the source filed them. Cut-off read from the data, not from the text of the source: active = GI50 up to about 1.1 µM and inactive = higher.

Experiments:
Test in all cases: NCI anticancer screen, dose series, 48 h
[1] = test system: 786-0
[2] = test system: A498
[3] = test system: A549
[4] = test system: ACHN
[5] = test system: CAKI-1
[6] = test system: CCRF-CEM
[7] = test system: DLD-1
[8] = test system: DMS-114
[9] = test system: DMS-273
[10] = test system: HCC 2998
[11] = test system: HCT-116
[12] = test system: HL-60
[13] = test system: HOP-62
[14] = test system: HOP-92
[15] = test system: HT-29
[16] = test system: K562
[17] = test system: KM12
[18] = test system: LOX IMVI
[19] = test system: LXFL 529
[20] = test system: M14
[21] = test system: M19-MEL
[22] = test system: MOLT-4
[23] = test system: Malme-3M
[24] = test system: NCI-H226
[25] = test system: NCI-H23
[26] = test system: NCI-H460
[27] = test system: NCI-H522
[28] = test system: OVCAR-3
[29] = test system: OVCAR-4
[30] = test system: OVCAR-5
[31] = test system: OVCAR-8
[32] = test system: RPMI-8226
[33] = test system: RXF 393
[34] = test system: RXF 631
[35] = test system: SF-268
[36] = test system: SF-295
[37] = test system: SF-539
[38] = test system: SK-MEL-28
[39] = test system: SK-MEL-2
[40] = test system: SK-MEL-5
[41] = test system: SK-OV-3
[42] = test system: SN12C
[43] = test system: SNB-19
[44] = test system: SNB-75
[45] = test system: SNB-78
[46] = test system: SR
[47] = test system: SW-620
[48] = test system: TK-10
[49] = test system: U-251
[50] = test system: UACC-257
[51] = test system: UACC-62
[52] = test system: UO-31
[53] = test system: XF498
[54] = test system: COLO 205
[55] = test system: EKVX
[56] = test system: HCT-15
[57] = test system: HOP-18
[58] = test system: IGROV-1
[59] = test system: KM-20L2

C=C1c2[nH]c3ccccc3c2CC(C(=O)O)N1C(O)c1ccc(S(=O)(=O)O)cc1 (stereo not given)
GI50 [1]: > 100 µM (inactive)
GI50 [2]: > 100 µM (inactive)
GI50 [3]: > 100 µM (inactive)
GI50 [4]: > 100 µM (inactive)
GI50 [5]: > 100 µM (inactive)
GI50 [6]: > 100 µM (inactive)
GI50 [7]: > 100 µM (inactive)
GI50 [8]: > 100 µM (inactive)
GI50 [9]: > 100 µM (inactive)
GI50 [10]: > 100 µM (inactive)
GI50 [11]: > 100 µM (inactive)
GI50 [12]: > 100 µM (inactive)
GI50 [13]: > 100 µM (inactive)
GI50 [14]: 22.1 µM (inactive)
GI50 [15]: > 100 µM (inactive)
GI50 [16]: > 100 µM (inactive)
GI50 [17]: > 100 µM (inactive)
GI50 [18]: > 100 µM (inactive)
GI50 [19]: > 100 µM (inactive)
GI50 [20]: > 100 µM (inactive)
GI50 [21]: > 100 µM (inactive)
GI50 [22]: > 100 µM (inactive)
GI50 [23]: > 100 µM (inactive)
GI50 [24]: 42.9 µM (inactive)
GI50 [25]: > 100 µM (inactive)
GI50 [26]: > 100 µM (inactive)
GI50 [27]: > 100 µM (inactive)
GI50 [28]: > 100 µM (inactive)
GI50 [29]: > 100 µM (inactive)
GI50 [30]: > 100 µM (inactive)
GI50 [31]: > 100 µM (inactive)
GI50 [32]: > 100 µM (inactive)
GI50 [33]: > 100 µM (inactive)
GI50 [34]: > 100 µM (inactive)
GI50 [35]: > 100 µM (inactive)
GI50 [36]: > 100 µM (inactive)
GI50 [37]: > 100 µM (inactive)
GI50 [38]: > 100 µM (inactive)
GI50 [39]: > 100 µM (inactive)
GI50 [40]: > 100 µM (inactive)
GI50 [41]: > 100 µM (inactive)
GI50 [42]: > 100 µM (inactive)
GI50 [43]: > 100 µM (inactive)
GI50 [44]: 65.6 µM (inactive)
GI50 [45]: > 100 µM (inactive)
GI50 [46]: > 100 µM (inactive)
GI50 [47]: > 100 µM (inactive)
GI50 [48]: > 100 µM (inactive)
GI50 [49]: > 100 µM (inactive)
GI50 [50]: > 100 µM (inactive)
GI50 [51]: > 100 µM (inactive)
GI50 [52]: > 100 µM (inactive)
GI50 [53]: > 100 µM (inactive)

CC1(C)CC(=O)C(C(=O)C(=O)NC2=C(Cl)C(=O)c3ccccc3C2=O)C(=O)C1
GI50 [1]: > 100 µM (inactive)
GI50 [2]: > 100 µM (inactive)
GI50 [3]: > 100 µM (inactive)
GI50 [4]: 91.4 µM (inactive)
GI50 [5]: 71.8 µM (inactive)
GI50 [6]: 36 µM (inactive)
GI50 [54]: 38.7 µM (inactive)
GI50 [7]: > 100 µM (inactive)
GI50 [8]: 67.9 µM (inactive)
GI50 [55]: > 100 µM (inactive)
GI50 [10]: 45.4 µM (inactive)
GI50 [11]: > 100 µM (inactive)
GI50 [56]: 46.5 µM
GI50 [12]: 20.1 µM (inactive)
GI50 [57]: > 100 µM (inactive)
GI50 [13]: > 100 µM (inactive)
GI50 [15]: 80.7 µM (inactive)
GI50 [58]: > 100 µM (inactive)
GI50 [16]: 32 µM (inactive)
GI50 [59]: > 100 µM (inactive)
GI50 [17]: 42.3 µM (inactive)
GI50 [18]: 80.9 µM (inactive)
GI50 [19]: 49.1 µM (inactive)
GI50 [20]: > 100 µM (inactive)
GI50 [21]: 61.5 µM (inactive)
GI50 [22]: 20.1 µM (inactive)
GI50 [23]: > 100 µM (inactive)
GI50 [24]: 39.4 µM (inactive)
GI50 [25]: > 100 µM (inactive)
GI50 [26]: 51.2 µM (inactive)
GI50 [27]: 24 µM (inactive)
GI50 [28]: 58.6 µM (inactive)
GI50 [29]: 63.5 µM (inactive)
GI50 [30]: > 100 µM (inactive)
GI50 [31]: > 100 µM (inactive)
GI50 [32]: 34.8 µM (inactive)
GI50 [33]: 70.8 µM (inactive)
GI50 [34]: 82.4 µM (inactive)
GI50 [35]: > 100 µM (inactive)
GI50 [36]: > 100 µM (inactive)
GI50 [37]: > 100 µM (inactive)
GI50 [38]: > 100 µM (inactive)
GI50 [39]: > 100 µM (inactive)
GI50 [40]: 73.8 µM (inactive)
GI50 [41]: > 100 µM (inactive)
GI50 [42]: 73.6 µM (inactive)
GI50 [43]: > 100 µM (inactive)
GI50 [44]: 71.1 µM (inactive)
GI50 [45]: > 100 µM (inactive)
GI50 [46]: 30.8 µM (inactive)
GI50 [47]: > 100 µM (inactive)
GI50 [48]: > 100 µM (inactive)
GI50 [49]: 82.2 µM (inactive)
GI50 [50]: > 100 µM (inactive)
GI50 [51]: 45.5 µM (inactive)
GI50 [52]: 57.4 µM (inactive)
GI50 [53]: > 100 µM (inactive)
